Legend:
[1] = system: skin
[2] = system: Human skin (full thickness)
Method: Transdermal insulin delivery was assessed by the Franz cell apparatus (PermeGear, PA, USA). Human skin (full thickness) was obtained from Zen-bio (NC, US). A mechanical skin press apparatus was used to section the skin and it was kept at −20° C. until it was used. On the day of experiment, the skin samples were pre-equilibrated with the PBS for 1 h prior to use, with the dermal side submerged in the buffer. Then, the skin samples were clamped between the donor and receptor chambers, with the epidermal side facing the donor compartment. […] The sunflower oil containing insulin without biopolymer was used as a control treatment. The receptor chamber was filled with 5 ml of PBS containing sodium azide (to prevent microbial growth) and kept at 32±0.5° C. under constant stirring (500 rpm). Samples (200 μL each) were taken at the indicated time points and an equal volume of the buffer was added immediately. The amount of insulin permeation was quantified by ELISA, using a designated standard curve [Mercodia]. All of the samples were tested in three repetitions.

Row | Compound | trans-epidermal water loss (TEWL), Baseline ([1]; before application, 5 hr exposure experiment) [g/m^2/hr] | increase of water loss (TEWL) ([1]; positive control, same experimental settings) [fold] | insulin permeation across human skin ex vivo [2]
1 | CCCCCCCCCCCCOS(=O)(=O)[O-].[Na+] [SDS, sodium dodecyl sulfate] | 10.0 ± 2.4 | ~3 | –
2 | Sodium carboxymethyl cellulose [CMC] | – | – | did not enhance insulin permeation
